Key:
Ras = details: Hancock et al.; Casey et al.; Schafer et al.; cited from earlier work
Squalene Synthase = target: T1, Squalene Synthase (Rattus norvegicus, UniProt Q02769); assay: Squalene Synthase Assay (in vitro, rat liver microsomes); format: biochemical; details: [4-14C]farnesyl pyrophosphate, 30° C., 20 minutes
T1 construct: from tissue; host or cells: rat liver microsomes (male Charles River CD rats, fed 0.1% lovastatin for 4 days)
T1 sequence (Q02769 1-416): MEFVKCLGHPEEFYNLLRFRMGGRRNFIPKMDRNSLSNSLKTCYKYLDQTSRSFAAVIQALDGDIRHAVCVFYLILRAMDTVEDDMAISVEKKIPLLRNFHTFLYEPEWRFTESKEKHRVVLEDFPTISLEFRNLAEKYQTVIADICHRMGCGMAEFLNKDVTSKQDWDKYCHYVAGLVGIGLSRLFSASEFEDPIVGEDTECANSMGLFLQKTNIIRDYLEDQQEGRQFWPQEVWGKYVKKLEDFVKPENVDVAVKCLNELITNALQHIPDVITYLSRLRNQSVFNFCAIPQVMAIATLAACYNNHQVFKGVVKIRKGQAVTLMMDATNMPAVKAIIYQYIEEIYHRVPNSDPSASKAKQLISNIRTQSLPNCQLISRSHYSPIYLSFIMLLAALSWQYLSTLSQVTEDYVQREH
Protocol: The intrinsic squalene synthase inhibitory activity of representative compounds of this invention was measured by the standard ill vitro protocol described below:
Preparation of Rat Liver Microsomes
Male, CHARLES RIVER CD® rats (120 to 150 g) were fed a diet containing 0.1% lovastatin for 4 days. The livers from these rats were homogenized in 5 volumes (mL/g) of ice cold 50 mM HEPES (4-(2-hydroxyethyl)-1-piperazine-ethanesulfonic acid), 5 mM EDTA(ethylenediaminetetraacetic acid) pH 7.5 with a Potter-Elvehjem type tissue grinder. The homogenate was centrifuged twice at 20,000 × g for 15 min. at 4° C., discarding the pellet each time. The supernatant was then centrifuged at 100,000 × g for 1 hr at 4° C. The resulting microsomal pellet was resuspended in a volume of the above homogenizing buffer equal to one-fifth the volume of the original homoSenate. This microsomal preparation has a protein concentration of about 7 mg/mL. The microsomal suspensions were stored in aliquots at -70° C. Squalene synthase activity in these aliquots is stable for a least several months.
Partial Purification of Prenyl Transferase
Prenyl transferase was purified to use in the enzymatic synthesis of radiolabelled farnesyl pyrophosphate. […]

| IC50 (Squalene Synthase) [nM] | Structure (SMILES) | Inhibition of Ras farnesylation in vivo (Ras) |
| --- | --- | --- |
|  | CC[C@H](C)C(=O)O[C@H]1CCC=C2C=C[C@H](C)[C@H](CC[C@@H]3C[C@@H](O)CC(=O)O3)[C@H]21 [compactin] | Inhibition of Ras farnesylation in vivohas been demonstrated |
|  | CC[C@H](C)C(=O)O[C@H]1C[C@@H](C)C=C2C=C[C@H](C)[C@H](CC[C@@H]3C[C@@H](O)CC(=O)O3)[C@H]21 [lovastatin] | Inhibition of Ras farnesylation in vivohas been demonstrated |
| 0.4 | C=C(CCC12OC3C(=O)OC3(C(=O)O)C(C(=O)O)(O1)C(OC(=O)/C=C/C(C)CC(C)CC)C2O)C(OC(C)=O)C(C)Cc1ccccc1 (stereo not drawn) [Compound 1, IIA-β-Lactone] |  |
